Structures can show the parent of a compound that is named as a salt.

On to `CCCC(CC)(CC)NC(=O)c1c(C)nn2c1N[C@@H](c1ccccc1)CC2(C)C` (as salt: HCl) [Example 1055, (5R)-N-(1,1-diethylbutyl)-2,7,7-trimethyl-5-phenyl-4,5,6,7-tetrahydropyrazolo[1,5-a]pyrimidine-3-carboxamide], for which the melting point (commonly the temperature of the solid-liquid transition) lay within 176 to 177 °C. As to `O=C(NCc1ccc(Oc2ccc(F)cc2)cc1)c1cnn2c1NC(c1ccccc1)CC2C(F)(F)F` (centres unmarked) [Example 271, N-(4-(4-fluorophenoxy)benzyl)-5-phenyl-7-(trifluoromethyl)-4,5,6,7-tetrahydropyrazolo[1,5-a]pyrimidine-3-carboxamide], the melting point is 169 to 172 °C. Under `COc1ccc(C2CC(C(F)(F)F)n3ncc(C(=O)O)c3N2)cc1` (centres unmarked) [Example 25, 5-(4-methoxyphenyl)-7-(trifluoromethyl)-4,5,6,7-tetrahydropyrazolo[1,5-a]pyrimidine-3-carboxylic acid] stands 154 to 155 °C; under `CCC(CC)(NC(=O)c1cnn2c1NC(c1ccccc1)CC2(C)C)c1ccc(OCCCC(=O)O)cc1` (centres unmarked) [Example 771, 4-(4-(1-(((7,7-dimethyl-5-phenyl-4,5,6,7-tetrahydropyrazolo[1,5-a]pyrimidin-3-yl)carbonyl)amino)-1-ethyl-propyl)phenoxy)butanoic acid], 170 to 171 °C.

As to `CCC1(CC)C[C@@H](O)CN1C(=O)c1c(C)nn2c1N[C@@H](c1ccccc1)CC2(C)C` (as salt: HCl) [Example 1098, (3R)-5,5-diethyl-1-(((5R)-2,7,7-trimethyl-5-phenyl-4,5,6,7-tetrahydropyrazolo[1,5-a]pyrimidin-3-yl)carbonyl)-3-pyrrolidinol], the melting point lay in the range of 140 to 142 °C. `CCC(CC)(NC(=O)c1c(C)nn2c1NC(c1ccccc1)CC2(C)C)c1ccc(Br)cc1` (centres unmarked) (as salt: HCl) [Example 738, N-(1-(4-bromophenyl)-1-ethylpropyl)-2,7,7-trimethyl-5-phenyl-4,5,6,7-tetrahydropyrazolo[1,5-a]pyrimidine-3-carboxamide] registered a melting point of 185 to 187 °C. As to `CCC(CC)(NC(=O)c1cnn2c1NC(c1ccccc1)CC2C(F)(F)F)c1ccc(Br)cc1` (centres unmarked) [Example 397, N-(1-(4-bromophenyl)-1-ethylpropyl)-5-phenyl-7-(trifluoromethyl)-4,5,6,7-tetrahydropyrazolo[1,5-a]pyrimidine-3-carboxamide], the melting point was in the range of 180 to 181 °C. Under `CCC(CC)(NC(=O)c1c(C)nn2c1NC(c1ccccc1)CC2(C)C)c1ccccc1F` (centres unmarked) (as salt: HCl) [Example 843, N-(1-ethyl-1-(2-fluorophenyl)propyl)-2,7,7-trimethyl-5-phenyl-4,5,6,7-tetrahydropyrazolo[1,5-a]pyrimidine-3-carboxamide] stands 180 to 182 °C.

`CCC(CC)(NC(=O)c1c(C)nn2c1N[C@@H](c1ccccc1)CC2(C)C)c1ccc(CO)cc1` (as salt: HCl) [Example 1075, (5R)-N-(1-ethyl-1-(4-(hydroxymethyl)phenyl)propyl)-2,7,7-trimethyl-5-phenyl-4,5,6,7-tetrahydropyrazolo[1,5-a]pyrimidine-3-carboxamide] came in with a melting point of 168 to 169 °C.

In turn, `CCC(CC)(NC(=O)c1cnn2c1NC(c1ccc(OC)cc1)CC2(C)C)c1ccc(C)cc1` (centres unmarked) (as salt: HCl) [Example 960, N-[1-ethyl-1-(4-methylphenyl)propyl]-5-(4-methoxyphenyl)-7,7-dimethyl-4,5,6,7-tetrahydropyrazolo[1,5-a]pyrimidine-3-carboxamide] came in with a melting point of 188 to 189 °C. Then `CCC(CC)(NC(=O)c1cnn2c1NC(c1ccccc1)C1CCCCC12)c1ccc(C(F)(F)F)cc1` (centres unmarked) [Example 201, N-(1-ethyl-1-(4-(trifluoromethyl)phenyl)propyl)-5-phenyl-4,5,5a,6,7,8,9,9a-octahydropyrazolo[1,5-a]quinazoline-3-carboxamide], with 213 to 214 °C; and `CC1(C)CC(c2ccccc2)Nc2c(C(=O)NC3(C(N)=O)CCCCC3)cnn21` (centres unmarked) [Example 626, N-(1-(aminocarbonyl)cyclohexyl)-7,7-dimethyl-5-phenyl-4,5,6,7-tetrahydropyrazolo[1,5-a]pyrimidine-3-carboxamide], with 140 to 141 °C; and `CCC(CC)(NC(=O)c1cnn2c1NC(C1CCCCC1)CC2(C)C)c1ccc(C(F)(F)F)cc1` (centres unmarked) [Example 676, 5-cyclohexyl-N-(1-ethyl-1-(4-(trifluoromethyl)phenyl)propyl)-7,7-dimethyl-4,5,6,7-tetrahydropyrazolo[1,5-a]pyrimidine-3-carboxamide], with 178.7 to 178.9 °C.

Consider `CCC(CC)(NC(=O)c1cnn2c1NC(c1ccccc1)CC2(C)C)c1cccc(Cl)c1` (centres unmarked) [Example 614, N-(1-(3-chlorophenyl)-1-ethylpropyl)-7,7-dimethyl-5-phenyl-4,5,6,7-tetrahydropyrazolo[1,5-a]pyrimidine-3-carboxamide], for which the melting point lay in the range of 195 to 196 °C.

In turn, `CC(NC(=O)c1cnn2c1N[C@H](c1ccccc1)C[C@@H]2C(F)(F)F)C(=O)c1ccccc1` (stereo in doubt) [Example 290, N-(1-methyl-2-oxo-2-phenylethyl)-5-phenyl-7-(trifluoromethyl)-4,5,6,7-tetrahydropyrazolo[1,5-a]pyrimidine-3-carboxamide] gave a melting point of 271 to 272 °C. Under `CCC(CC)(NC(=O)c1cnn2c1NC(c1ccccc1)CC2(C)C)c1ccc(-c2ccco2)cc1` (centres unmarked) [Example 584, N-(1-ethyl-1-(4-(2-furyl)phenyl)propyl)-7,7-dimethyl-5-phenyl-4,5,6,7-tetrahydropyrazolo[1,5-a]pyrimidine-3-carboxamide] stands 167 to 168 °C. Under `CCC1(NC(=O)c2cnn3c2NC(c2ccccc2)CC3(C)C)CCOCC1` (centres unmarked) [Example 582, N-(4-ethyltetrahydro-2H-pyran-4-yl)-7,7-dimethyl-5-phenyl-4,5,6,7-tetrahydropyrazolo[1,5-a]pyrimidine-3-carboxamide] stands 104 to 105 °C; under `Cc1ccc(C2CC(C)(C)n3nc(C)c(C(=O)O)c3N2)cc1` (centres unmarked) [Example 949, 2,7,7-trimethyl-5-(4-methylphenyl)-4,5,6,7-tetrahydropyrazolo[1,5-a]pyrimidine-3-carboxylic acid], 181 to 182 °C. Take `CCC(CC)(NC(=O)c1c(C)nn2c1NC(c1cccs1)CC2(C)C)c1ccccc1` (centres unmarked) (as salt: HCl) [Example 958, N-(1-ethyl-1-phenylpropyl)-2,7,7-trimethyl-5-(2-thienyl)-4,5,6,7-tetrahydropyrazolo[1,5-a]pyrimidine-3-carboxamide]: the melting point is 171 to 172 °C. `CCC(=O)Oc1ccc(C(CC)(CC)NC(=O)c2cnn3c2NC(c2ccccc2)CC3(C)C)cc1` (centres unmarked) [Example 729, 4-(1-(((7,7-dimethyl-5-phenyl-4,5,6,7-tetrahydropyrazolo[1,5-a]pyrimidin-3-yl)carbonyl)amino)-1-ethylpropyl)phenyl propionate] came in with a melting point of 172 to 173 °C. Turning to `CCC(C#N)NC(=O)c1cnn2c1N[C@H](c1ccccc1)C[C@@H]2C(F)(F)F` (stereo in doubt) [Example 284, N-(1-cyanopropyl)-5-phenyl-7-(trifluoromethyl)-4,5,6,7-tetrahydropyrazolo[1,5-a]pyrimidine-3-carboxamide], the melting point lay in the range of 201 to 202 °C. `CCC(CC)(NC(=O)c1c(C)nn2c1NC(c1ccccc1Cl)CC2(C)C)c1ccc(C)cc1` (centres unmarked) (as salt: HCl) [Example 968, 5-(2-chlorophenyl)-N-(1-ethyl-1-(4-methylphenyl)propyl)-2,7,7-trimethyl-4,5,6,7-tetrahydropyrazolo[1,5-a]pyrimidine-3-carboxamide] displayed a melting point of 173 to 174 °C. Then `CCC(CC)(NC(=O)c1cnn2c1NC(c1ccccc1)CC21CCCCC1)c1ccc(C(F)(F)F)cc1` (centres unmarked) [Example 200, N-(1-ethyl-1-(4-(trifluoromethyl)phenyl)propyl)-5′-phenyl-5′,6′-dihydro-4′H-spiro[cyclohexane-1,7′-pyrazolo[1,5-a]pyrimidine]-3′-carboxamide], with 274 to 275 °C; and `CCC(CC)(NC(=O)c1c(C)nn2c1NC(c1cccc(F)c1)CC2(C)C)c1ccc(C)cc1` (centres unmarked) (as salt: HCl) [Example 972, N-(1-ethyl-1-(4-methylphenyl)propyl)-5-(3-fluorophenyl)-2,7,7-trimethyl-4,5,6,7-tetrahydropyrazolo[1,5-a]pyrimidine-3-carboxamide], with 152 to 155 °C. Turning to `O=C(NC1(C(=O)Nc2ccccc2)CCCCC1)c1cnn2c1N[C@H](c1ccccc1)C[C@@H]2C(F)(F)F` (stereo in doubt) [Example 371, N-(1-(anilinocarbonyl)cyclohexyl)-5-phenyl-7-(trifluoromethyl)-4,5,6,7-tetrahydropyrazolo[1,5-a]pyrimidine-3-carboxamide], the melting point lay in the range of 262 to 263 °C. Compound `CCC(CC)(NC(=O)c1cnn2c1NC(c1ccccc1)CC2(C)C)c1ccc(Br)cc1` (centres unmarked) [Example 413, N-(1-(4-bromophenyl)-1-ethylpropyl)-7,7-dimethyl-5-phenyl-4,5,6,7-tetrahydropyrazolo[1,5-a]pyrimidine-3-carboxamide] displayed a melting point of 129 to 130 °C. Under `CCC(CC)(NC(=O)c1c(C)nn2c1N[C@@H](c1ccccc1)CC2(C)C)c1cc(C)n(-c2ccccc2)n1` (as salt: HCl) [Example 1062, (5R)-N-(1-ethyl-1-(5-methyl-1-phenyl-1H-pyrazol-3-yl)propyl)-2,7,7-trimethyl-5-phenyl-4,5,6,7-tetrahydropyrazolo[1,5-a]pyrimidine-3-carboxamide] stands 194 to 195 °C; under `CCC(CC)(NC(=O)c1cnn2c1NC(c1ccccc1F)CC2(C)C)c1ccc(C(F)(F)F)cc1` (centres unmarked) [Example 675, N-(1-ethyl-1-(4-(trifluoromethyl)phenyl)propyl)-5-(2-fluorophenyl)-7,7-dimethyl-4,5,6,7-tetrahydropyrazolo[1,5-a]pyrimidine-3-carboxamide], 200.9 to 201 °C; under `CCCCOC(=O)CCc1ccc(C(CC)(CC)NC(=O)c2cnn3c2NC(c2ccccc2)CC3(C)C)cc1` (centres unmarked) (as salt: HCl) [Example 815, butyl 3-(4-(1-(((7,7-dimethyl-5-phenyl-4,5,6,7-tetrahydropyrazolo[1,5-a]pyrimidin-3-yl)carbonyl)amino)-1-ethyl-propyl)phenyl)propanoate], 143 to 144 °C.

For the origin of these results see US9447100B2, “Substituted pyrazolo[1,5-A] pyrimidines as calcium receptor modulating agents” (Takeda Pharmaceutical Company Limited, priority 2002, dated 2016).
